Experimental data as given in ChEMBL document CHEMBL1201862, “PubChem BioAssay data set” (2004).
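Protocol summary: plate cells (96-well), add compound at 5 concentrations, incubate 48 h, interpolate endpoints linearly. GI50 marks 50% less growth.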 Activity calls are given as the source filed them. Rule as the data show it: active = GI50 up to about 1.1 µM and inactive = higher.

What was measured:
Experiment in all cases: DTP human tumour cell line panel, 48 h
HCT-116 = test system: HCT-116
NCI/ADR-RES = test system: NCI/ADR-RES
SNB-75 = test system: SNB-75
MDA-MB-435 = test system: MDA-MB-435
Malme-3M = test system: Malme-3M
SK-MEL-2 = test system: SK-MEL-2
NCI-H23 = test system: NCI-H23
HCC 2998 = test system: HCC 2998
DU-145 = test system: DU-145
MOLT-4 = test system: MOLT-4
SF-268 = test system: SF-268
SK-OV-3 = test system: SK-OV-3
SF-539 = test system: SF-539
HOP-62 = test system: HOP-62
CAKI-1 = test system: CAKI-1
U-251 = test system: U-251
TK-10 = test system: TK-10
HL-60 = test system: HL-60
SK-MEL-28 = test system: SK-MEL-28
RPMI-8226 = test system: RPMI-8226

Measured: GI50

CN(C)c1ccc(/C=C2\N=C(c3ccccc3)N(/N=C3\C(=O)Nc4ccccc43)C2=O)cc1
inactive: HCT-116 57.3 µM | NCI/ADR-RES 83.8 µM | SNB-75 57.9 µM | MDA-MB-435 20.4 µM | Malme-3M 45.9 µM | SK-MEL-2 37.7 µM | NCI-H23 > 100 µM | HCC 2998 52.4 µM | DU-145 61.9 µM | MOLT-4 32 µM | SF-268 39.6 µM | SK-OV-3 > 100 µM | SF-539 > 100 µM | HOP-62 > 100 µM | CAKI-1 35.9 µM | U-251 76.6 µM | TK-10 53.2 µM | HL-60 35.2 µM | SK-MEL-28 > 100 µM

C(=C\N1CCCCC1)/c1nnnn1-c1ccccc1
inactive: HCT-116 25.4 µM | NCI/ADR-RES 20.5 µM | SNB-75 19.6 µM | MDA-MB-435 22.2 µM | Malme-3M 55.5 µM | RPMI-8226 21.1 µM | NCI-H23 25.2 µM | HCC 2998 90.6 µM | DU-145 > 100 µM | MOLT-4 17.4 µM | SF-268 27 µM | SK-OV-3 25.6 µM | SF-539 25.3 µM | HOP-62 54 µM | CAKI-1 12.4 µM | U-251 21.1 µM | TK-10 43.1 µM | HL-60 15.8 µM | SK-MEL-28 44.7 µM

NCC(=O)NC1(c2cc3ccccc3s2)CCCCC1
inactive: HCT-116 42.7 µM | NCI/ADR-RES 48.5 µM | SNB-75 28.3 µM | MDA-MB-435 37.8 µM | Malme-3M 17.6 µM | RPMI-8226 21.8 µM | NCI-H23 71.4 µM | HCC 2998 15.6 µM | DU-145 > 100 µM | SF-268 28.4 µM | SK-OV-3 67.6 µM | SF-539 50.9 µM | HOP-62 > 100 µM | CAKI-1 > 100 µM | TK-10 36 µM | HL-60 18.5 µM | SK-MEL-28 19 µM

CC(NNC(=O)c1ccncc1)c1ccc(F)cc1 (centres undefined)
inactive: HCT-116 > 100 µM | NCI/ADR-RES > 100 µM | SNB-75 > 100 µM | MDA-MB-435 > 100 µM | Malme-3M > 100 µM | SK-MEL-2 > 100 µM | NCI-H23 > 100 µM | HCC 2998 > 100 µM | DU-145 > 100 µM | MOLT-4 6.65 µM | SF-268 > 100 µM | SK-OV-3 > 100 µM | SF-539 > 100 µM | HOP-62 > 100 µM | CAKI-1 > 100 µM | U-251 > 100 µM | TK-10 > 100 µM | HL-60 80 µM | SK-MEL-28 > 100 µM
